Measurements reported in publication PMC10544575, “Inhibitory mechanism of vortioxetine on CYP450 enzymes in human and rat liver microsomes” (Frontiers in Pharmacology, 2023).

Assays:
CYP3A = assay: IC50-shift experiment, CYP3A in RLMs; format: in vitro ADME; conditions: rat, rat liver microsomes, probe midazolam; for IC50 at 30 min: midazolam 3.5 μM
[1] = set-up: method as in Chen et al., 2018; conditions: single oral dose of 10 mg; 14 healthy subjects; ref Chen et al., 2018; cited from earlier work
CYP2C19 = CYP2C19 (Homo sapiens, UniProt P33261); assay: IC50-shift experiment, CYP2C19 in HLMs; format: in vitro ADME; set-up: 0.20 mg/mL HLMs or 0.20 mg/mL RLMs; from tissue; host or cells: human liver microsomes; conditions: for IC50: mephenytoin 90 μM
Sequence of CYP2C19 (P33261 whole entry): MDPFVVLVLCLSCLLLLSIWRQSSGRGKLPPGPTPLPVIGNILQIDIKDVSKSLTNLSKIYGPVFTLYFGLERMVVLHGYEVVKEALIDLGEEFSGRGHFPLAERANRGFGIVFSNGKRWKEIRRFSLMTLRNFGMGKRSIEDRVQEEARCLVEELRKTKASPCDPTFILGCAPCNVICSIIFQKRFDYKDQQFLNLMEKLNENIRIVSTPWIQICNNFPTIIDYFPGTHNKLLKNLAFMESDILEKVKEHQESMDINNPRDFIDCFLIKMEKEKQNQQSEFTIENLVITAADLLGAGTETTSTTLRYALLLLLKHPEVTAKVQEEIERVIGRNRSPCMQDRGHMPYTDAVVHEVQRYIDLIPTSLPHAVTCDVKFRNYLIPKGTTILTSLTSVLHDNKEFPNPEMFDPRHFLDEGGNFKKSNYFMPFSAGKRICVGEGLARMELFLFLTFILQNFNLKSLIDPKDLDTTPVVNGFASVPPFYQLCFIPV
Description: (§1) The components of the incubation system were as follows: 0.20 mg/mL HLMs or 0.20 mg/mL RLMs, 0.1 M Tris-HCl, vortioxetine, and the probe substrates of each enzyme. In the study of Km’s (Michaelis–Menten constant) experiment, midazolam (1, 2, 5, 10, 20, 50 and 100 μM in HLMs and RLMs) corresponded to CYP3A4/3A; bupropion (10, 20, 50, 100, 200, 500, 1,000 and 2000 μM in HLMs; 1, 2, 5, 10, 20, 50, 100 and 200 μM in RLMs) corresponded to CYP2B6/2B; amodiaquine (5, 10, 20, 50, 100 and 200 μM in HLMs; 10, 20, 50, 100, 200, 500 μM in RLMs) corresponded to CYP2C8/CYP2C-1; losartan (1, 2, 5, 10, 20, 50, 100, 200 μM in HLMs; 10, 20, 50, 100, 200, 500 and 1,000 μM in RLMs) corresponded to CYP2C9/CYP2C-2; mephenytoin (20, 50, 100, 200, 500 and 1,000 μM in HLMs; 5, 10, 20, 50, 100, 200, 500 and 1,000 μM in RLMs) corresponded to CYP2C19/CYP2C-3; and dextromethorphan (1, 2, 5, 10, 20, 50 and 100 μM in HLMs and RLMs) corresponded to CYP2D6/CYP2D. After 5.0 min of preincubation in the shaking water bath, the reaction was started with the addition of 1.0 mM NADPH. The incubated temperature at 37°C for 30 min. After the incubation, the enzyme reaction was stopped by cooling at −80°C, and 200 μL of acetonitrile and 20 μL of internal standard diazepam (200 ng/mL) were added for protein precipitation. The solution was fully vortexed and centrifuged at 13,000 × rpm for 10 min, and the supernatant was collected for data analysis by UPLC-MS/MS.
IC50-shift was used to investigate whether the drug produced time-dependent inhibition (TDI) of the enzyme. […] The above mixture was then incubated for another 30 min. During the experiment, the individual substrates midazolam (4 μM), bupropion (40 μM), amodiaquine (3 μM), losartan (8 μM), mephenytoin (90 μM), and dextromethorphan (10 μM) were determined with vortioxetine IC50-shift in HLMs. […] Other experimental conditions were the same as above.
All experiments results were detected by UPLC-MS/MS, which equipped with a Waters Acquity UPLC system (Milford, MA, United States) and a Waters Xevo TQ-S triple quadrupole tandem mass spectrometer with an electrospray ionization source (Milford, MA, United States). The chromatographic separation was performed on a Waters ACQUITY UPLC BEH C18 column (2.1 × 50 mm, 1.7 μm, Waters Corp.) at 40°C. The mobile phase was consisted of acetonitrile (A) and 0.1% formic acid in water (B). The gradient elution at a flow rate of 0.4 mL/min was conducted as follows: 0–0.5 min, 10% A; 0.5–1.0 min, 10%–90% A; 1.0–2.0 min, 90% A; 2.0–2.1 min, 90%–10% A, and 2.1–3.0 min, 10% A. The relevant analysis parameters were shown in Table 1.
(§2) IC50 values and enzyme kinetic parameters were calculated by Graphpad Prism 6.0 (GraphPad software Inc., CA, United States). […] Data for each experiment were expressed as mean ± SD (n = 3).

CYP2C-2 = assay: Reversible inhibition kinetics (Lineweaver-Burk), CYP2C-2 in RLMs; format: in vitro ADME, rat
Description: as §1, with “After 5.0 min of preincubation in the shaking water bath, the reaction was started with the addition of 1.0 mM NADPH. The incubated temperature at 37°C for 30 min. After the incubation, the enzyme reaction was stopped by cooling at −80°C, and 200 μL of acetonitrile and 20 μL of internal standard diazepam (200 ng/mL) were added for protein precipitation. The solution was fully vortexed and centrifuged at 13,000 × rpm for 10 min, and the supernatant was collected for data analysis by UPLC-MS/MS.” left out
(§3) All experiments results were detected by UPLC-MS/MS, which equipped with a Waters Acquity UPLC system (Milford, MA, United States) and a Waters Xevo TQ-S triple quadrupole tandem mass spectrometer with an electrospray ionization source (Milford, MA, United States). […]
as §2

[2] = no reference given; cited from earlier work
CYP2D6 = CYP2D6 (Homo sapiens, UniProt P10635); assay: IC50-shift experiment, CYP2D6 in HLMs; format: in vitro ADME; set-up: 0.20 mg/mL HLMs or 0.20 mg/mL RLMs; from tissue; host or cells: human liver microsomes; conditions: for IC50: dextromethorphan 10 μM
Sequence of CYP2D6 (P10635 whole entry): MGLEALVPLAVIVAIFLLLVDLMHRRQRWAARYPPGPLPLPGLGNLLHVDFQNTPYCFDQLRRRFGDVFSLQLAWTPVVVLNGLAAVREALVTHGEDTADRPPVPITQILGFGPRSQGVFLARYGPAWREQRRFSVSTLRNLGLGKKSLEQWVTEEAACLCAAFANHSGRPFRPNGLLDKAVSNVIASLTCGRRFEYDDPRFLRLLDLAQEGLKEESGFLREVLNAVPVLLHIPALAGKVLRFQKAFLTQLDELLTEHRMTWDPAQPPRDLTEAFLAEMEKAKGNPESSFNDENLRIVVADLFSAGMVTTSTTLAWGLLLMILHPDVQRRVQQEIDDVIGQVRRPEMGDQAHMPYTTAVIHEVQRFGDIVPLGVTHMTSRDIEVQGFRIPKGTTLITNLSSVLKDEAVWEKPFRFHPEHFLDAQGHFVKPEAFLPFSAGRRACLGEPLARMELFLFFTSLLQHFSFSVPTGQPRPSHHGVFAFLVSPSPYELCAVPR
Description: as §1, with “The solution was fully vortexed and centrifuged at 13,000 × rpm for 10 min, and the supernatant was collected for data analysis by UPLC-MS/MS.” left out
IC50-shift was used to investigate whether the drug produced time-dependent inhibition (TDI) of the enzyme. […] During the experiment, the individual substrates midazolam (4 μM), bupropion (40 μM), amodiaquine (3 μM), losartan (8 μM), mephenytoin (90 μM), and dextromethorphan (10 μM) were determined with vortioxetine IC50-shift in HLMs. […]
as §3, §2

[3] = set-up: method as in earlier work; conditions: patients with severe liver impairment; single oral dose of 10 mg; ref (2022); cited from earlier work
[4] = 30 min preincubation with 1.0 mM NADPH
[5] = 30 min preincubation without NADPH

## Cc1ccc(Sc2ccccc2N2CCNCC2)c(C)c1 [vortioxetine]
CYP3A; [4]
  IC50 at 30 min: 16.4 µM
CYP3A; [5]
  IC50 at 30 min: 20.9 µM
CYP3A; ratio IC50 (−) NADPH to IC50 (+) NADPH, read-out: IC50 fold shift
  IC50 shift at 30 min: 1.28
[1]
  AUC(0-t): 254.72 ngh/mL
  Cmax: 4.60 ng/mL
CYP2C19; CYP2C19, 30 min preincubation with 1.0 mM NADPH
  IC50: 2.83 µM
CYP2C19; CYP2C19, 30 min preincubation without NADPH
  IC50: 5.88 µM
CYP2C19; human, human liver microsomes, probe mephenytoin (90 μM), CYP2C19, ratio IC50 (−) NADPH to IC50 (+) NADPH, read-out: IC50 fold shift
  IC50 shift at 30 min: 2.08
CYP2C19; preincubation with NADPH vs without
  activity of CYP2C19 with the NADPH: significantly reduced
CYP2C-2; losartan, Lineweaver-Burk plot
  Inhibition type: competitive inhibition
CYP2C-2; rat, rat liver microsomes, probe losartan
  Ki at 30 min: 0.12 µM
[2]
  plasma protein (binding): 99%
CYP2D6; [4]
  IC50: 18.4 µM
CYP2D6; [5]
  IC50: 19.4 µM
CYP2D6; human, human liver microsomes, probe dextromethorphan (10 μM), ratio IC50 (−) NADPH to IC50 (+) NADPH, read-out: IC50 fold shift
  IC50 shift at 30 min: 1.06
[3]
  AUC(0-t) higher than healthy subjects: 10%
  Cmax lower than healthy subjects: 24%
